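In this assay, cells in 96-well plates receive the compound at five concentrations for 48 hours. Endpoints are linearly interpolated between the surrounding concentrations. Here, GI50 denotes the concentration required for 50% inhibition of growth. TGI denotes the concentration required for complete inhibition of growth.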 Bounds are passed on as bounds.

Among the data in PubChem BioAssay (NCI) are TGI and GI50 values, retold here.

Test systems include A498 renal; EKVX NSCLC; HOP-62 NSCLC; OVCAR-5 ovarian; SF-268 CNS; SN12C renal; SNB-19 CNS; UACC-62 melanoma; HOP-92 NSCLC; RPMI-8226 leukemia; MDA-N.
Assay in all cases: NCI anticancer screen, dose series, 48 h

For `CSc1nc(-c2ccccc2)nc(=[N+]2CCOCC2)s1`, the TGI in the experiment on A498 renal, in the experiment with EKVX NSCLC, with HOP-62 NSCLC, in the experiment on OVCAR-5 ovarian, with SF-268 CNS and in the experiment on SN12C renal was above 100 µM each time. The TGI in the experiment on SNB-19 CNS and in the experiment with UACC-62 melanoma was above 100 µM in each case.
Consider `CC(C)(C)CC(C)(C)NCC(O)COc1ccc(C(C)(C)c2ccc(OCC(O)CNC(C)(C)CC(C)(C)C)cc2)cc1` (stereo not given), for which the TGI came out at 3.03 µM with A498 renal; 3.08 µM with EKVX NSCLC; 3.19 µM in the experiment with HOP-62 NSCLC; 3 µM in the experiment with HOP-92 NSCLC; 3.32 µM in the experiment with OVCAR-5 ovarian; 3.06 µM in the experiment with SF-268 CNS. In addition, the values for the TGI with SN12C renal, in the experiment on SNB-19 CNS and in the experiment on UACC-62 melanoma were 3.04 µM, 3.01 µM and 3.31 µM, respectively.
As to `O=S(=O)(O)c1cc(N=[N+]([O-])c2ccc(N=Nc3ccccc3)cc2S(=O)(=O)O)ccc1/C=C/c1ccc(N=[N+]([O-])c2ccc(N=Nc3ccccc3)cc2S(=O)(=O)O)cc1S(=O)(=O)O`, the TGI with A498 renal, in the experiment with EKVX NSCLC, in the experiment on HOP-62 NSCLC, in the experiment on HOP-92 NSCLC, with OVCAR-5 ovarian and with RPMI-8226 leukemia was above 100 µM throughout. For the same molecule, the TGI in the experiment with SF-268 CNS, in the experiment on SN12C renal, with SNB-19 CNS and with UACC-62 melanoma was above 100 µM throughout.
As to `N=C(N)c1ccc(-c2ccc(-c3ccc(Cl)cc3Cl)s2)nc1`, the GI50 in the experiment on EKVX NSCLC was 2.47 µM; in the experiment with HOP-62 NSCLC, 1.89 µM; with HOP-92 NSCLC, 1.76 µM; with OVCAR-5 ovarian, 1.71 µM; in the experiment with RPMI-8226 leukemia it was 2.32 µM; in the experiment on UACC-62 melanoma it was 1.9 µM. Also, the TGI amounted to 6.56 µM in the experiment on EKVX NSCLC; 3.92 µM with HOP-62 NSCLC; 4 µM in the experiment on HOP-92 NSCLC; 3.21 µM with OVCAR-5 ovarian; 5.42 µM with RPMI-8226 leukemia; 3.65 µM with UACC-62 melanoma.
Turning to `CCCCCCCCCCCCCCCCCCNc1nc(=O)n(C2CC(OP(=O)(O)OCC3OC(n4cc(F)c(=O)[nH]c4=O)CC3O)C(CO)O2)cc1F` (stereo not given), the TGI in the experiment with A498 renal is above 100 µM; with EKVX NSCLC, above 100 µM; in the experiment with HOP-62 NSCLC, above 100 µM; with HOP-92 NSCLC, above 100 µM; in the experiment with OVCAR-5 ovarian it was above 100 µM; with RPMI-8226 leukemia, 49.7 µM. Besides, the TGI was 37.1 µM in the experiment on SF-268 CNS, above 100 µM in the experiment with SN12C renal, 30.3 µM in the experiment with SNB-19 CNS and 51.1 µM in the experiment on UACC-62 melanoma.
`O=[N+]([O-])c1ccc(Nc2cccc3c2[nH]c2c(-c4ccccc4)nccc23)c([N+](=O)[O-])c1`: the TGI in the experiment on A498 renal, in the experiment with EKVX NSCLC, with HOP-62 NSCLC, in the experiment with HOP-92 NSCLC, with OVCAR-5 ovarian and in the experiment on RPMI-8226 leukemia was above 100 µM each time. In addition, the TGI in the experiment with SF-268 CNS, in the experiment on SN12C renal, in the experiment on SNB-19 CNS and with UACC-62 melanoma was above 100 µM in each case.
In the case of `COc1cc2nc(-c3cccs3)nc(N3C(c4cc(OC)c(OC)c(OC)c4)=NNC(=O)c4ccccc43)c2cc1OC`, the TGI with A498 renal was above 100 µM; with EKVX NSCLC it was 73.5 µM; in the experiment with HOP-62 NSCLC it was above 100 µM; in the experiment on HOP-92 NSCLC, above 100 µM; in the experiment with OVCAR-5 ovarian, 54.5 µM; with SF-268 CNS, above 100 µM. The TGI is 51.3 µM with SN12C renal, 46.3 µM with SNB-19 CNS and 35.8 µM with UACC-62 melanoma.
Consider `CCc1n[nH]c(=O)[nH]1`, for which the TGI in the experiment on EKVX NSCLC, in the experiment on HOP-62 NSCLC, in the experiment on MDA-N, in the experiment with OVCAR-5 ovarian, in the experiment with SF-268 CNS and in the experiment with SN12C renal was above 100 µM each time. The TGI with SNB-19 CNS and with UACC-62 melanoma was above 100 µM each time.
Regarding `COc1ccc(C2=NN(c3nsc4ccccc34)C(=O)CC2)cc1`, the TGI in the experiment with EKVX NSCLC, with HOP-62 NSCLC, in the experiment on HOP-92 NSCLC, in the experiment with OVCAR-5 ovarian, in the experiment with RPMI-8226 leukemia and in the experiment with SF-268 CNS was above 100 µM throughout. Further, the TGI with SN12C renal, in the experiment with SNB-19 CNS and with UACC-62 melanoma was above 100 µM each time.
As for `COc1ccc(S(=O)(=O)Nc2cc(Sc3cccc4cccnc34)c(O)c3ccccc23)cc1`, the GI50 with A498 renal was 2.27 µM; in the experiment with EKVX NSCLC it was 1.44 µM; in the experiment with HOP-62 NSCLC, 1.71 µM; in the experiment on HOP-92 NSCLC, 1.55 µM; with OVCAR-5 ovarian it was 2.83 µM; in the experiment on RPMI-8226 leukemia it was 2.47 µM. In addition, the GI50 is 1.55 µM in the experiment with SF-268 CNS, 1.06 µM in the experiment on SN12C renal and 2.04 µM in the experiment with UACC-62 melanoma. Moreover, the TGI in the experiment with A498 renal is 16.5 µM; in the experiment on EKVX NSCLC it was 10.9 µM; in the experiment with HOP-62 NSCLC, 21.7 µM; in the experiment with HOP-92 NSCLC it was 5.93 µM; in the experiment with OVCAR-5 ovarian, 12.7 µM; in the experiment on RPMI-8226 leukemia it was 8.92 µM. Further, the TGI in the experiment on SF-268 CNS is 9.81 µM; in the experiment on SN12C renal it was 4.99 µM; with UACC-62 melanoma, 6.83 µM.
On to `Cc1oc2nc(N(C)C)n3cnnc3c2c1C`, for which the TGI in the experiment with A498 renal, in the experiment with EKVX NSCLC, in the experiment on HOP-62 NSCLC, in the experiment on HOP-92 NSCLC, in the experiment with OVCAR-5 ovarian and in the experiment on RPMI-8226 leukemia was above 100 µM each time. The TGI with SF-268 CNS, with SN12C renal, with SNB-19 CNS and in the experiment on UACC-62 melanoma was above 100 µM in each case.
As to `Cc1cc(OCC(O)CO)ccc1Cl` (stereo not given), the TGI with A498 renal, in the experiment on EKVX NSCLC, in the experiment with HOP-62 NSCLC, with HOP-92 NSCLC, in the experiment with OVCAR-5 ovarian and in the experiment with RPMI-8226 leukemia was above 100 µM in each case. For the same molecule, the TGI in the experiment on SF-268 CNS, in the experiment with SN12C renal, in the experiment with SNB-19 CNS and in the experiment on UACC-62 melanoma was above 100 µM in each case.
In the case of `CC1C(c2ccccc2)NC(c2ccccc2)CC1(N)C#N` (stereo not given), the TGI in the experiment with EKVX NSCLC, in the experiment on HOP-62 NSCLC, with HOP-92 NSCLC, with MDA-N, in the experiment on OVCAR-5 ovarian and with SF-268 CNS was above 100 µM each time. In addition, the TGI with SN12C renal, in the experiment with SNB-19 CNS and in the experiment with UACC-62 melanoma was above 100 µM in each case.
As to `NC(=S)NS(=O)(=O)c1ccc(Cl)cc1`, the TGI in the experiment with EKVX NSCLC, with HOP-62 NSCLC, with MDA-N, in the experiment with OVCAR-5 ovarian, in the experiment on RPMI-8226 leukemia and in the experiment with SF-268 CNS was above 100 µM in each case. For the same molecule, the TGI with SN12C renal, with SNB-19 CNS and in the experiment with UACC-62 melanoma was above 100 µM each time.
As to `Cc1cc(S(=O)(=O)Nc2n[nH]c(Nc3ccccc3)n2)c(SSc2cc(Cl)c(C)cc2S(=O)(=O)Nc2n[nH]c(Nc3ccccc3)n2)cc1Cl`, the TGI in the experiment on EKVX NSCLC, in the experiment on HOP-62 NSCLC, with MDA-N, in the experiment on OVCAR-5 ovarian, in the experiment with RPMI-8226 leukemia and in the experiment on SF-268 CNS was above 100 µM throughout. In addition, the TGI with SN12C renal, with SNB-19 CNS and in the experiment on UACC-62 melanoma was above 100 µM each time.
With `CCOC(=O)C1=C(C)N(Cc2ccccc2)C2(O)C(OC)CC(=O)C3C(=O)N(c4ccccc4)C(=O)C132` (stereo not given), the TGI with A498 renal is 50.6 µM; in the experiment on EKVX NSCLC, 60 µM; with HOP-62 NSCLC, above 100 µM; in the experiment on HOP-92 NSCLC, 44.5 µM; with OVCAR-5 ovarian, above 100 µM; in the experiment with RPMI-8226 leukemia it was above 100 µM. The TGI with SF-268 CNS is above 100 µM; in the experiment on SN12C renal it was 41.5 µM; in the experiment with SNB-19 CNS, 37.6 µM; in the experiment with UACC-62 melanoma, 21.6 µM.
`COc1cc(-c2nc(SC)nc3c2CCc2ccccc2-3)cc(OC)c1OC`: the TGI with A498 renal is above 100 µM; with EKVX NSCLC, 92.8 µM; in the experiment on HOP-62 NSCLC, above 100 µM; in the experiment with HOP-92 NSCLC, above 100 µM; in the experiment on OVCAR-5 ovarian, above 100 µM; in the experiment on RPMI-8226 leukemia it was 68.8 µM. Besides, the TGI in the experiment with SF-268 CNS, in the experiment with SN12C renal, with SNB-19 CNS and with UACC-62 melanoma was above 100 µM each time.
`COc1ccc(/C=C(/c2ccc(OC)cc2)c2c(Cl)cc(Cl)c(/C(=C\c3ccc(OC)cc3)c3ccc(OC)cc3)c2N=Nc2ccccc2)cc1`: the TGI in the experiment on A498 renal, in the experiment on EKVX NSCLC, in the experiment on HOP-62 NSCLC, in the experiment with HOP-92 NSCLC, in the experiment on OVCAR-5 ovarian and in the experiment on RPMI-8226 leukemia was above 100 µM in each case. The TGI with SF-268 CNS, in the experiment with SN12C renal, in the experiment with SNB-19 CNS and in the experiment with UACC-62 melanoma was above 100 µM in each case.
Take `Cc1ccc(S(=O)(=O)N/N=C\c2c3ccccc3[n+](C)c3ccccc23)cc1`: the TGI was above 100 µM in the experiment with A498 renal; above 100 µM in the experiment on EKVX NSCLC; above 100 µM in the experiment on HOP-62 NSCLC; 73.2 µM in the experiment on HOP-92 NSCLC; above 100 µM in the experiment on OVCAR-5 ovarian; above 100 µM in the experiment with RPMI-8226 leukemia. Besides, the TGI was above 100 µM with SF-268 CNS, above 100 µM with SN12C renal, 75.1 µM with SNB-19 CNS and 74.6 µM in the experiment with UACC-62 melanoma.
